Reference: ChEMBL document CHEMBL3784992, “Identification of novel estrogen receptor (ER) agonists that have additional and complementary anti-cancer activities via ER-independent mechanism” (Bioorg Med Chem Lett, 2016)
The source made the active and inactive calls. The rule behind the calls is not given here.

How the values were obtained:
Estrogen receptor = target: T1, Estrogen receptor (Homo sapiens, UniProt P03372); experiment: Agonist activity at estrogen receptor in human MCF7 cells assessed as ERE-mediated transcriptional activity after 24 hrs by luciferase assay; assay type: cell-based
T1 sequence (P03372 whole entry): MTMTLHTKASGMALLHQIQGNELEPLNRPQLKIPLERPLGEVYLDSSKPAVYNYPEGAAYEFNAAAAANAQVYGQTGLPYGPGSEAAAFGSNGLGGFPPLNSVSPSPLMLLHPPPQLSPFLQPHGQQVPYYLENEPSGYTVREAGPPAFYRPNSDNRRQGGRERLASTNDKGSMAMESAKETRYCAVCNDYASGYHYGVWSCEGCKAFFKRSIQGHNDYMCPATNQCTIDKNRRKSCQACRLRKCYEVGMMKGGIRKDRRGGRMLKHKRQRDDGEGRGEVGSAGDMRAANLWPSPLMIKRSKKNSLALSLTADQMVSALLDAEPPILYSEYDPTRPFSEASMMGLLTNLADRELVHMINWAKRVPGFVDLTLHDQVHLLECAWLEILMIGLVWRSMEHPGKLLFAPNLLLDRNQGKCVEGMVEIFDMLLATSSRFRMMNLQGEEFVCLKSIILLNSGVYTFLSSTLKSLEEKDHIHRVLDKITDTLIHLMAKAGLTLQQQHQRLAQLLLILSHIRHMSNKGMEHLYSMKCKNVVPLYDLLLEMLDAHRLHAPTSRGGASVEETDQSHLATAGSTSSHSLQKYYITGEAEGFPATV

MCF7 [1] = experiment: Antiproliferative activity against ER-positive human MCF7 cells assessed as cell viability at 10 uM after 48 hrs by MTT assay; assay type: functional, cell-based
[2] = target: T2, Estrogen receptor (Homo sapiens) (UniProt P03372); experiment: Agonist activity at estrogen receptor in human MCF7 cells assessed as GREB1 mRNA level at 10 uM after 24 hrs by RT-qPCR method; assay type: cell-based
T2 sequence (whole entry): T1 sequence (P03372 whole entry)

[3] = target: T2, Estrogen receptor (Homo sapiens); experiment: Agonist activity at estrogen receptor alpha in human MCF7 cells assessed as ER alpha phosphorylation at 10 uM after 24 hrs by immunoblotting analysis; assay type: cell-based
MCF7 [4] = experiment: Antiproliferative activity against ER-positive human MCF7 cells assessed as cell viability after 48 hrs by MTT assay; assay type: functional, cell-based
MDA-MB-231 = experiment: Antiproliferative activity against ER-negative human MDA-MB-231 cells assessed as cell viability after 48 hrs by MTT assay; assay type: functional, cell-based
MCF7 [5] = experiment: Induction of apoptosis in ER-positive human MCF7 cells assessed as membrane blebbing at 10 uM after 24 hrs by DAPI staining based fluorescence microscopy; assay type: functional, cell-based
MCF7 [6] = experiment: Induction of apoptosis in ER-positive human MCF7 cells assessed as condensed nuclei at 10 uM after 24 hrs by DAPI staining based fluorescence microscopy; assay type: functional, cell-based
MCF7 [7] = experiment: Induction of apoptosis in ER-positive human MCF7 cells assessed as cell death at 10 uM after 48 hrs by annexin-V staining based flow cytometry; assay type: functional
MCF7 [8] = experiment: Effect on cell cycle in ER-positive human MCF7 cells assessed as accumulation at subG1 phase at 10 uM after 48 hrs by propidium iodide staining based flow cytometry; assay type: functional

SMILES | EC50 (Estrogen receptor) | Activity (MCF7 [1]) | Activity [2] | Activity [3] | Activity (MCF7 [4]) | Activity (MDA-MB-231) | Activity (MCF7 [5]) | Activity (MCF7 [6]) | Activity (MCF7 [7]) | Activity (MCF7 [8])
C=CCCCON=C(c1ccc(O)cc1)c1ccc(O)cc1 | 46 nM | Active | Active | Active | Dose-dependent effect | Dose-dependent effect | Active | Active | Active | Active
CC(C)CCON=C(c1ccc(O)cc1)c1ccc(O)cc1 | 77 nM | Active | Active | Active | Dose-dependent effect | Dose-dependent effect | Active | Active | Active | Active
CCCCON=C(c1ccc(O)cc1)c1ccc(O)cc1 | 75 nM | Active | Active | Active | Dose-dependent effect | Dose-dependent effect | Active | Active | Active | Active
